BigSolDB 2.1

Cc1cc(C(=O)O)ccc1[N+](=O)[O-]
Conditions	solubility (mole fraction)
in 1,4-dioxane, 283.15 K	0.0407
in 1,4-dioxane, 285.65 K	0.0428
in 1,4-dioxane, 288.15 K	0.0448
in 1,4-dioxane, 290.65 K	0.0469
in 1,4-dioxane, 293.15 K	0.0493
in 1,4-dioxane, 295.65 K	0.0519
in 1,4-dioxane, 298.15 K	0.0545
in 1,4-dioxane, 300.65 K	0.0571
in 1,4-dioxane, 303.15 K	0.06
in 1,4-dioxane, 305.65 K	0.0628
in 1,4-dioxane, 308.15 K	0.0658
in 1,4-dioxane, 310.65 K	0.0688
in 1,4-dioxane, 313.15 K	0.0718
in 1,4-dioxane, 315.65 K	0.0754
in 1,4-dioxane, 318.15 K	0.0802
in DMF, 283.15 K	0.0677
in DMF, 285.65 K	0.0709
in DMF, 288.15 K	0.0754
in DMF, 290.65 K	0.0795
in DMF, 293.15 K	0.0845
in DMF, 295.65 K	0.0908
in DMF, 298.15 K	0.0975
in DMF, 300.65 K	0.104
in DMF, 303.15 K	0.111
in DMF, 305.65 K	0.118
in DMF, 308.15 K	0.126
in DMF, 310.65 K	0.135
in DMF, 313.15 K	0.142
in DMF, 315.65 K	0.152
in DMF, 318.15 K	0.162
in NMP, 283.15 K	0.0856
in NMP, 285.65 K	0.0872
in NMP, 288.15 K	0.09
in NMP, 290.65 K	0.0933
in NMP, 293.15 K	0.0965
in NMP, 295.65 K	0.1
in NMP, 298.15 K	0.105
in NMP, 300.65 K	0.109
in NMP, 303.15 K	0.113
in NMP, 305.65 K	0.118
in NMP, 308.15 K	0.123
in NMP, 310.65 K	0.128
in NMP, 313.15 K	0.133
in NMP, 315.65 K	0.138
in NMP, 318.15 K	0.145
in acetone, 283.15 K	0.0204
in acetone, 285.65 K	0.0212
in acetone, 288.15 K	0.022
in acetone, 290.65 K	0.0228
in acetone, 293.15 K	0.0238
in acetone, 295.65 K	0.0247
in acetone, 298.15 K	0.026
in acetone, 300.65 K	0.0273
in acetone, 303.15 K	0.0285
in acetone, 305.65 K	0.0299
in acetone, 308.15 K	0.0311
in acetone, 310.65 K	0.0325
in acetone, 313.15 K	0.0338
in acetone, 315.65 K	0.0353
in acetone, 318.15 K	0.0372
in acetonitrile, 283.15 K	0.00255
in acetonitrile, 285.65 K	0.00276
in acetonitrile, 288.15 K	0.00302
in acetonitrile, 290.65 K	0.00328
in acetonitrile, 293.15 K	0.00355
in acetonitrile, 295.65 K	0.00382
in acetonitrile, 298.15 K	0.00412
in acetonitrile, 300.65 K	0.00438
in acetonitrile, 303.15 K	0.00469
in acetonitrile, 305.65 K	0.00498
in acetonitrile, 308.15 K	0.00529
in acetonitrile, 310.65 K	0.00564
in acetonitrile, 313.15 K	0.00598
in acetonitrile, 315.65 K	0.00638
in acetonitrile, 318.15 K	0.00688
in ethanol, 283.15 K	0.00751
in ethanol, 285.65 K	0.0078
in ethanol, 288.15 K	0.00818
in ethanol, 290.65 K	0.00866
in ethanol, 293.15 K	0.00915
in ethanol, 295.65 K	0.00964
in ethanol, 298.15 K	0.0102
in ethanol, 300.65 K	0.0108
in ethanol, 303.15 K	0.0113
in ethanol, 305.65 K	0.0119
in ethanol, 308.15 K	0.0125
in ethanol, 310.65 K	0.0132
in ethanol, 313.15 K	0.0138
in ethanol, 315.65 K	0.0146
in ethanol, 318.15 K	0.0155
in ethyl acetate, 283.15 K	0.0106
in ethyl acetate, 285.65 K	0.0111
in ethyl acetate, 288.15 K	0.0116
in ethyl acetate, 290.65 K	0.0123
in ethyl acetate, 293.15 K	0.0127
in ethyl acetate, 295.65 K	0.0134
in ethyl acetate, 298.15 K	0.014
in ethyl acetate, 300.65 K	0.0146
in ethyl acetate, 303.15 K	0.0153
in ethyl acetate, 305.65 K	0.0159
in ethyl acetate, 308.15 K	0.0167
in ethyl acetate, 310.65 K	0.0175
in ethyl acetate, 313.15 K	0.0185
in ethyl acetate, 315.65 K	0.0193
in ethyl acetate, 318.15 K	0.0205
in isopropanol, 283.15 K	0.00877
in isopropanol, 285.65 K	0.00915
in isopropanol, 288.15 K	0.00966
in isopropanol, 290.65 K	0.0102
in isopropanol, 293.15 K	0.0108
in isopropanol, 295.65 K	0.0115
in isopropanol, 298.15 K	0.0122
in isopropanol, 300.65 K	0.0129
in isopropanol, 303.15 K	0.0136
in isopropanol, 305.65 K	0.0143
in isopropanol, 308.15 K	0.0151
in isopropanol, 310.65 K	0.016
in isopropanol, 313.15 K	0.0169
in isopropanol, 315.65 K	0.0181
in isopropanol, 318.15 K	0.0192
in methanol, 283.15 K	0.00606
in methanol, 285.65 K	0.00664
in methanol, 288.15 K	0.00734
in methanol, 290.65 K	0.00809
in methanol, 293.15 K	0.00879
in methanol, 295.65 K	0.00956
in methanol, 298.15 K	0.0104
in methanol, 300.65 K	0.0111
in methanol, 303.15 K	0.012
in methanol, 305.65 K	0.0129
in methanol, 308.15 K	0.0137
in methanol, 310.65 K	0.0147
in methanol, 313.15 K	0.0158
in methanol, 315.65 K	0.0169
in methanol, 318.15 K	0.0184
in n-butanol, 283.15 K	0.00676
in n-butanol, 285.65 K	0.00725
in n-butanol, 288.15 K	0.00789
in n-butanol, 290.65 K	0.00844
in n-butanol, 293.15 K	0.00913
in n-butanol, 295.65 K	0.00994
in n-butanol, 298.15 K	0.0108
in n-butanol, 300.65 K	0.0116
in n-butanol, 303.15 K	0.0125
in n-butanol, 305.65 K	0.0134
in n-butanol, 308.15 K	0.0144
in n-butanol, 310.65 K	0.0153
in n-butanol, 313.15 K	0.0163
in n-butanol, 315.65 K	0.0174
in n-butanol, 318.15 K	0.0188
in n-propanol, 283.15 K	0.00726
in n-propanol, 285.65 K	0.00765
in n-propanol, 288.15 K	0.00815
in n-propanol, 290.65 K	0.00866
in n-propanol, 293.15 K	0.00914
in n-propanol, 295.65 K	0.00966
in n-propanol, 298.15 K	0.0103
in n-propanol, 300.65 K	0.0109
in n-propanol, 303.15 K	0.0115
in n-propanol, 305.65 K	0.0121
in n-propanol, 308.15 K	0.0129
in n-propanol, 310.65 K	0.0137
in n-propanol, 313.15 K	0.0145
in n-propanol, 315.65 K	0.0155
in n-propanol, 318.15 K	0.0164
in toluene, 283.15 K	0.0165
in toluene, 285.65 K	0.0174
in toluene, 288.15 K	0.0184
in toluene, 290.65 K	0.0191
in toluene, 293.15 K	0.0202
in toluene, 295.65 K	0.0211
in toluene, 298.15 K	0.0221
in toluene, 300.65 K	0.0231
in toluene, 303.15 K	0.0243
in toluene, 305.65 K	0.0253
in toluene, 308.15 K	0.0265
in toluene, 310.65 K	0.0279
in toluene, 313.15 K	0.0295
in toluene, 315.65 K	0.0314
in toluene, 318.15 K	0.0333
